Data from PubChem BioAssay (NCI).
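Grown in 96-well plates, cells were treated for 48 hours with each compound at five concentrations. Insufficient inhibition: endpoint recorded as highest concentration tested. GI50 = concentration required for 50% inhibition of growth. TGI: concentration producing complete growth inhibition.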

Experiments:
Assay in all cases: NCI-60 cell line screen, 48 h
[1] = system: CCRF-CEM leukemia
[2] = system: HOP-62 NSCLC
[3] = system: KM12 colon
[4] = system: LOX IMVI melanoma
[5] = system: SK-MEL-2 melanoma
[6] = system: SNB-75 CNS
[7] = system: SW-620 colon
[8] = system: MALME-3M melanoma
[9] = system: MDA-MB-231 breast
[10] = system: NCI/ADR-RES ovarian

SMILES | TGI [1] [µM] | TGI [2] [µM] | TGI [3] [µM] | TGI [4] [µM] | TGI [5] [µM] | TGI [6] [µM] | TGI [7] [µM] | TGI [8] [µM] | GI50 [1] [µM] | GI50 [2] [µM] | GI50 [3] [µM] | GI50 [8] [µM] | GI50 [9] [µM] | TGI [9] [µM] | GI50 [10] [nM] | TGI [10] [µM] | GI50 [5] [µM] | GI50 [6] [µM] | GI50 [7] [µM] | GI50 [4] [µM]
Cc1ccc(S(=O)(=O)c2ccc(NC(=O)SCCC(=O)O)cc2)cc1 | > 100 | > 100 | > 100 | > 100 | > 100 | > 100 | > 100 | – | – | – | – | – | – | – | – | – | – | – | – | –
C=C=C(C(=O)OC)S(=O)c1ccccc1[N+](=O)[O-] (stereo not drawn) | 77 | > 100 | > 100 | – | > 100 | > 100 | > 100 | > 100 | – | – | – | – | – | – | – | – | – | – | – | –
COc1ccc(OC(C)=O)c2c1CCC=CC2=O | 17.1 | 28 | 12.6 | 17.5 | 33.7 | 29.3 | 28.8 | 44.1 | – | – | – | – | – | – | – | – | – | – | – | –
CCN(CC)CC(C)(C)C(=O)/C=C/c1cccc(/C=C/C(=O)C(C)(C)CN(CC)CC)c1 | 11.6 | 5.14 | 1.77 | 0.37 | – | 1.19 | 0.419 | 3.11 | – | – | – | – | – | – | – | – | – | – | – | –
C#CCNC(=O)N(CC#C)N=O | > 100 | > 100 | > 100 | > 100 | > 100 | > 100 | > 100 | > 100 | – | – | – | – | – | – | – | – | – | – | – | –
Nc1c(-c2cn(Cc3ccccc3)c3ccccc23)[n+]([O-])c2ccccc2[n+]1[O-] | > 100 | – | > 100 | > 100 | 57 | 61.6 | > 100 | > 100 | – | – | – | – | – | – | – | – | – | – | – | –
Nc1ccccc1NC(=O)c1ccc(CNc2nccc(-c3cccnc3)n2)cc1 | > 100 | > 51.8 | 14.1 | – | 3.71 | > 25.4 | > 100 | > 21.7 | 0.742 | 1.34 | 0.886 | 0.57 | 2.44 | > 100 | 803 | > 22.9 | 0.481 | 1.43 | 0.518 | –
O=C(/C=C/c1ccco1)c1cc(F)c(Cl)cc1Cl | 47.5 | 39.1 | 56.4 | 58.2 | 34.6 | 44.2 | 36.3 | 38.7 | 18.8 | 19.2 | 19.7 | 16.5 | 21.9 | 58 | – | – | 18.1 | 22.3 | 13.1 | 22.4
COC(=O)C1=Cc2cc(OC)c(OC)c(OC)c2[C@H](c2cc(OC)c(OC)c(OC)c2)C1C(=O)OC (stereo partly drawn) | > 100 | > 100 | > 100 | > 100 | – | > 100 | > 100 | > 100 | – | – | – | – | – | – | – | – | – | – | – | –
O=C1/C(=N\O)c2ccccc2S1(=O)=O | > 100 | > 100 | > 100 | > 100 | > 100 | > 100 | > 100 | > 100 | – | – | – | – | – | – | – | – | – | – | – | –
CC1=C(O)c2cn(C)cc2C(=O)C1=O | > 100 | > 100 | > 100 | > 100 | > 100 | > 100 | > 100 | > 100 | – | – | – | – | – | – | – | – | – | – | – | –
